“Also recorded” adds a separate entry of the source. Each block holds one molecule with its values, some of them ahead of it.
Key:
[1] = test system: human WiDr colon cancer; settings: hydrobromide salt; human WiDr colon cancer in vitro; cited from earlier work
[2] = test system: P388 cells; assay: Cytotoxicity, murine P388 leukemic cells (P388 D1); settings: read-out: P388 cells IC50
[3] = test system: CEM cells; assay: Cytotoxicity, CEM human T-lymphocytes; settings: for IC50: Homo sapiens, CCRF-CEM, read-out: CEM cells IC50; for TIL1210 (CEM cells): IC50 T-lymphocytes (CEM)/IC50 L1210; for TIP388 (CEM cells): IC50 T-lymphocytes (CEM)/IC50 P388
[4] = test system: L1210 cells; assay: Cytotoxicity, murine L1210 leukemic cells; format: cell-based; settings: Mus musculus, mean
[5] = test system: Molt 4/C8 cells; assay: Cytotoxicity, Molt 4/C8 human T-lymphocytes; settings: for TIL1210 (Molt 4/C8 cells): IC50 T-lymphocytes (Molt 4/C8)/IC50 L1210; for TIP388 (Molt 4/C8 cells): IC50 T-lymphocytes (Molt 4/C8)/IC50 P388; for IC50: read-out: Molt 4/C8 cells IC50
[6] = test system: SW-620; assay: SW-620 human colon tumor xenograft in athymic mice; format: in vivo; settings: 80 mg/kg
Description: (§1) The compounds were examined by the Developmental Therapeutics Program, National Cancer Institute, U.S.A. The murine P388 lymphocytic leukemia assay was conducted by a reported known method and the maximum ILS figures for 9d and 10a were 5 and 20% respectively using doses of 54 and 6.7 mg/kg respectively. An increase of 20% or more in the life spans is considered to be statistically significant. A reference drug 5-fluorouracil has an ILS of >35 using a dose of 20 mg/kg when given intraperitoneally for five days. Passage of human tumors in athymic mice was undertaken by a known method. No definitions of activity are available but as a general rule compounds causing a 60% reduction in tumor weights in one of these screens would be evaluated further.

[7] = test system: Jurkat T, LV-50, H-9 and Molt-3 cells; assay: Cell viability of Jurkat T, LV-50, H-9 and Molt-3 cells; format: cell-based; settings: 10 μM, 24 hour
Description: FIG. 5 is a graph showing percent viability of Jurkat T, LV-50, H-9 and Molt 3 cells after exposure to 10 μM of compound 9d for a 24 hour period with error bars representing mean±standard deviation in three separate experiments;
(§2) Cell viability was determined by the trypan blue exclusion test according to a literature procedure (Duke and Cohen, 1992). […] A flask containing ~10^6 cells/ml and 8 or […] of DMSO was used as the control. […] After 48 hours, cells were counted using a haemocytometer. The percentage of growth inhibition was calculated as follows: (C-T/C)×100 where C is the mean cell number in the control and T is the mean cell number in each treatment. […] All experiments were performed in triplicate.

[8] = test system: P388 lymphocytic leukemia; assay: Murine P388 lymphocytic leukemia in vivo screen
Description: In order to evaluate whether these promising results could be translated into in vivo activity, two representative compounds 9d and 10a were chosen. […] These two compounds were examined in the murine P388 screen and against certain human tumors in athymic mice.
as §1

[9] = test system: human Jurkat T cells; assay: Apoptosis, fluorescence microscopy with acridine orange and ethidium bromide; settings: for percentage of apoptotic cells: 17 hours, control 4.4%
[10] = test system: human Jurkat T cells; assay: Growth inhibition of Jurkat T cells, trypan blue exclusion test; format: cell-based; settings: read-out: growth of Jurkat T cells inhibited by 50% (IC50), 48 hours, 37° C., trypan blue
Description: All cell cultures used were maintained in RPMI 1640 medium, pH 7.4 supplanted with 10% fetal bovine serum and 50 μg/ml of gentamycin in 25 ml culture flasks at 37° C. in a humidified gas mixture of 5% carbon dioxide balanced with air and were passaged three times a week.
as §2

[11] = test system: COLO 205; assay: COLO 205 human colon tumor xenograft in athymic mice; format: in vivo
Description: as §1

[12] = test system: NCI-H522; assay: NCI-H522 human non-small cell lung tumor xenograft in athymic mice; format: in vivo; settings: 80 mg/kg
Description: as §1

[13] = test system: human Jurkat T cells; assay: DNA fragmentation by agarose gel electrophoresis; format: cell-based; settings: Compound 9d 6 and 10 μM; melphalan 10 μM
[14] = test system: LOX IMVI; assay: LOX IMVI human melanoma xenograft in athymic mice; format: in vivo, human tumor in athymic mice; settings: 80 mg/kg
Description: as §1

[15] = test system: human tumors; assay: Cytotoxicity, human tumor cell line panel (approximately 55 lines)

SMILES: CCN(CC)CC(C)(C)C(=O)/C=C/c1ccc(Cl)cc1 [Compound 7]
activity relative to 5-fluorouracil [1]: 1.3 times
IC50 [2]: 2.2 µM
IC50 [3]: 1.94 µM
TIL1210 (CEM cells) [3]: 0.30
TIP388 (CEM cells) [3]: 0.88
IC50 [4]: 6.39 µM
TIL1210 (Molt 4/C8 cells) [5]: 1.13
TIP388 (Molt 4/C8 cells) [5]: 3.29
TIP388 and TIL1210 compared with compound 1b ([5]; human T-lymphocytes): inferior TIP388 and TIL1210 values than compound 1b
IC50 [5]: 7.24 µM

IC50 [10]: 3.46 µM
SMILES: CCN1CCC(O)(/C=C/c2ccc(C)cc2)C(C(=O)/C=C/c2ccc(C)cc2)C1 (stereo not shown) [Compound 9d]
% ILS [6]: 9%
% T/C [6]: 32%
sensitivity of cell lines [7]: Jurkat T cells were the most sensitive in its response, although all cell cultures were affected
maximum ILS, murine P388 ([8]; 54 mg/kg): 5%
activity in the murine P388 screen ([8]; in words): inactive
apoptotic index / apoptosis induction (in words) [9]: the apoptotic index increased almost two fold; also recorded: greater apoptotic index than melphalan; also recorded: more potent inducer of apoptosis; also recorded: potent apoptotic agent
time after which apoptotic effects were detectable [9]: 3 h
morphological features ([9]; 6 μM, 17 h): characteristic blebbing and apoptotic bodies
percentage of apoptotic cells ([9]; 6 μM): 22%
percentage of apoptotic cells ([9]; 10 μM): 43%
death of treated cells ([9]; 48 hours): all the treated cells had died
IC50 [2]: 2.1 µM
IC50 [3]: 14 µM
TIL1210 (CEM cells) [3]: 2.31
TIP388 (CEM cells) [3]: 6.69
TIht (CEM cells) ([3]; IC50 T-lymphocytes (CEM)/IC50 human tumors): 2.80
% ILS ([11]; COLO 205, 200 mg/kg, increase in median time to reach a certain size): 28%
percent reduction in median tumor weight ([11]; COLO 205, 200 mg/kg, percentage reduction of median tumor weight): 57%
reduction in the weight of the human COLO 205 colon tumor ([11]; athymic mice, Example 5): 60%
% ILS [12]: -2%
% T/C [12]: 23%
DNA ladder / DNA fragmentation [13]: did not show any DNA ladder; also recorded: no DNA fragmentation was detected
IC50 [4]: 6.08 µM
% ILS [14]: 12%
% T/C [14]: 35%
selective/preferential cytotoxicity towards colon cancer cells ([15]; human tumor screen): preferential cytotoxicity towards human colon cells; also recorded: preferential cytotoxicity to colon; also recorded: selective toxicity to human colon cancer cells
IC50 ([15]; read-out: human tumors IC50, mean graph midpoint, approximately 55 cell lines, hydrobromide salts used for 4a, 11a-e): 5.01 µM
cytotoxicity to murine leukemic and human tumor cells vs T-lymphocytes [5]: greater cytotoxicity to murine leukemic cells and human tumor cell lines than to T-lymphocytes
TIL1210 (Molt 4/C8 cells) [5]: 4.44
TIP388 (Molt 4/C8 cells) [5]: 12.85
TIht (Molt 4/C8 cells) ([5]; IC50 T-lymphocytes (Molt 4/C8)/IC50 human tumors): 5.39
IC50 [5]: 27 µM
